Experimental data: patent US11834414B2, “1-methyl-4-[(4-phenylphenyl)sulfonylmethyl]cyclohexyanol and 1-methyl-4-[[4-(2-pyridyl)phenyl]sulfonylmethyl]cyclohexanol compounds and their therapeutic use” (Modern Biosciences Limited, priority 2018, dated 2023)
Entries after “also recorded” stand apart in the source; their conditions may differ.

Assay: Metabolite identification in rats
Assay type: in vivo, Han Wistar rats
Settings: rat, 1 mg/kg intravenous, up to 24 hours
Experimental: The formation of metabolites in rats was assessed to determine the propensity of the compounds to form a biaryl metabolite.
The corresponding sulfonamide compounds (for example, reference compound HMC-C-01-A) give rise to a sulphonamide metabolite which is persistent and has a long half-life. In addition, the biaryl sulphonamide metabolite acts as an inducer of metabolism in rats, which may complicate the assessment of toxicity in rodents. Therefore, the lower the propensity to form a biaryl sulphonamide metabolite, the greater the potential suitability of the compound for development for human use.
Plasma samples from Han Wistar rats, aged 8-12 weeks, were collected from animals dosed with test compound. Test compounds at a dose of 1 mg/kg were administered intravenously as a solution in 5% NMP, 5% Solutol HS, and 90% normal saline. Animals were given free access to food throughout the study. Blood samples were taken under light isoflurane anaesthesia at 12 time points following an intravenous dose (0.033, 0.1, 0.167, 0.25, 0.5, 1, 2, 4, 6, 8, 12, and 24 hours). The blood samples were collected from a set of three rats at each time point in labelled micro centrifuge tube containing K2EDTA as anticoagulant. Plasma samples were separated by centrifugation of whole blood.
All samples were processed for analysis by protein precipitation using acetonitrile and analysed with a fit-for-purpose LC-MS/MS method.
At the completion of the study, the results were expressed as detection of the metabolite and time course of formation.

SMILES: C[C@]1(O)CC[C@H](NS(=O)(=O)c2ccc(-c3ccc(Cl)cc3C#N)cc2)CC1 [HMC-C-01-A, reference compound]
- formation of biaryl sulphonamide metabolite (MET-001) in plasma: formed in large quantities and accumulated over time; also recorded: in large quantities (which accumulated over time)
